US20060014723A1, “Anti-parasitic uses of borinic acid complexes” (priority 2004, published 2006)
Converted amounts (≈) assume the structure as drawn.

Assays:
P. falciparum K1 = test: Malaria in vitro screening model (3H-hypoxanthine incorporation); format: cell-based, Plasmodium falciparum; conditions: for IC50: Plasmodium falciparum, K1
Procedure: […] P. falciparum K1 is used in this study. K1 (a clone originating from Thailand) is resistant to chloroquine and pyrimethamine. The strains are maintained in RPMI 1640 medium with 0.36 mM hypoxanthine, supplemented with 25 mM N 2-hydroxyethyipiperazine-N-2-ethane-sulphonic acid (HEPES), 25 mM NaHCO3, neomycin (100 U/mL) and 5 g/L of ALBUMAX® II (lipid-rich bovine serum albumin, GIBCO, Grand Island, N.Y., USA), together with 5% washed human A+ erythrocytes. All cultures and assays are conducted at 37° C. under an atmosphere of 4% CO2, 3% O2 and 93% N2. Cultures are kept in incubation chambers filled with the gas mixture. Subcultures are diluted to a parasitemia of between 0.1 and 0.5% and the medium is changed daily.
Antimalarial activity is assessed using an adaptation of the procedures described by Desjardins et al. (Antimicrob. Agents Chemother. 16:710-718, 1979), and Matile and Pink (In: Lefkovits, I. and Pernis, B. (Eds.), Immunological Methods Vol. IV, Academic Press, San Diego, pp. 221-234, 1990).
Stock drug solutions are prepared in 100% dimethylsulfoxide (DMSO) at 10 mg/mL, and heated or sonicated if necessary to dissolve the sample. After use, the stocks are kept at −20° C. For the assays, the compound is further diluted in serum-free culture medium and finally to the appropriate concentration in complete medium without hypoxanthine.
Assays are performed in sterile 96-well microtiter plates, each well containing 200 μl of parasite culture (0.15% parasitemia, 2.5% hematocrit) with or without serial drug solutions. Seven 2-fold dilutions are used, covering a range from […] to 0.078 μg/mL. For active compounds the highest concentration is lowered (e.g., to […]); for plant extracts the highest concentration is increased to 50 μg/mL. […] After 48 hours of incubation at 37° C., 0.5 μCi ^3H-hypoxanthine is added to each well. Cultures are incubated for a further 24 h before being harvested onto glass-fiber filters and washed with distilled water. The radioactivity is counted using a Betaplate liquid scintillation counter (Wallac, Zurich, Switzerland). The results are recorded as counts per minute per well at each drug concentration and expressed as percentage of the untreated controls. IC50 values are calculated from the sigmoidal inhibition curves using Microsoft EXCEL.

[1] = test system: Leishmania donovani strain MHOM/ET1671L82; test: Leishmaniasis in vitro screening model (axenic amastigotes, Alamar Blue); format: cell-based; conditions: for IC50: Leishmania donovani, read-out: L. donovani IC50
Procedure: The Leishmania donovani strain MHOM/ET1671L82 (obtained from Dr. S. Croft, London School of Hygiene and Tropical Medicine) is used. The strain is maintained in the Syrian Golden hamster. Amastigotes are collected from the spleen of an infected hamster. Amastigotes are grown in axenic culture at 37° C. in SM medium (Cunningham I., J. Protozoal. 24:325-329, 1977) at pH 5.4 supplemented with 10% heat-inactivated fetal bovine serum (FBS) under an atmosphere of 5% CO2 in air.
(§1) After use the stocks are kept at −20° C. For the assays, the compound is further diluted to the appropriate concentration using complete medium.
Assays are performed in 96-well flat-bottom microtiter plates (Costar, Corning Inc.), each well containing 100 μl of culture medium with 105 amastigotes from axenic culture with or without a serial drug dilution. Concentration of amastigotes is determined in a CASY cell analyzing system (Scharfe System, Reutlingen, Germany). Before the amastigotes are counted, the parasite culture is passed twice through a 22-gauge needle to break up clusters of amastigotes.
The highest concentration for the test compounds is 90 μg/mL. Seven 3-fold dilutions are used, covering a range from […]. Each drug is tested in duplicate. Active compounds are tested twice for confirmation. After 72 hours of incubation, the plates are inspected under an inverted microscope to assure growth of the controls and sterile conditions.
(§2) Ten μL of Alamar Blue (12.5 mg resazurin dissolved in 100 mL distilled water) are then added to each well and the plates are incubated for another 2 hours. Then the plates are read with a Spectramax GEMINI XS microplate fluorometer (Molecular Devices Cooperation, Sunnyvale, Calif., USA) using an excitation wave length of 536 nm and an emission wave length of 588 nm.
Data are analyzed using the microplate reader software Softmax Pro (Molecular Devices Cooperation, Sunnyvale, Calif., USA). Decrease of fluorescence (i.e. inhibition) is expressed as percentage of the fluorescence of control cultures and plotted against the drug concentrations. The IC50 value is calculated from the sigmoidal inhibition curve by the software program.

[2] = test system: T. b. rhodesiense STIB 900; test: African sleeping sickness in vitro screening model (Alamar Blue); format: cell-based, Trypanosoma brucei rhodesiense; conditions: for IC50: Trypanosoma brucei
Procedure: Bloodstream from trypomastigotes of the strains (a) and (c) are maintained in Minimal Essential Medium (MEM) with Earle's salts supplemented according to Baltz, et al., (EMBO J. 4:1273-1277, 1985) with 25 mM N-2-hydroxyethylpiperazine-N′-2-ethane-sulphonic acid (HEPES), 1 g/L additional glucose, 1% MEM non-essential amino acids (100×), 0.2 mM 2-mercaptoethanol, 2 mM sodium pyruvate, 0.1 mM hypoxanthine and 15% heat-inactivated horse serum.
All cultures and assays are conducted at 37° C. under an atmosphere of 5% CO2 in air.
After use the stocks are kept at −20° C. For the assays, the compound is further diluted in serum-free culture medium and finally to the appropriate concentration in complete medium without hypoxanthine.
Assays are performed in 96-well microtiter plates, each well containing 100 μL of culture medium with 8×10^3 bloodstream forms with or without a serial drug dilution. The highest concentration for the test compounds is 90 μg/mL. Seven 3-fold drug dilutions are used, covering a range from 90 μg/mL to 0.123 μg/mL. Each drug is tested in duplicate. Active compounds are tested twice for confirmation. The final result is the mean of the four individual IC50 values. After 72 hrs of incubation, the plates are inspected under an inverted microscope to assure growth of the controls and sterile conditions.
as §2, with “are now” for “are then”, “excitation wavelength” for “excitation wave length”
IC50 values are determined using the microplate reader software Softmax Pro (Molecular Devices Cooperation, Sunnyvale, Calif., USA).

[3] = test system: Trypanosoma cruzi Tulahuen C2C4 strain; test: Chagas disease in vitro screening model (beta-galactosidase strain in L-6 cells); format: cell-based; conditions: for IC50: Trypanosoma cruzi, TULAHUEN, L6, read-out: T. cruzi IC50
Procedure: Trypanosoma cruzi Tulahuen C2C4 strain, containing the β-galactosidase (Lac Z) gene (Buckner et al., Antimicrob. Agents Chemother 40:2592-2597, 1996) is used for this study.
The infective amastigote and trypomastigote stages are cultivated in L-6 cells (a rat skeletal myoblast cell line) in RPMI 1640 medium supplemented with 2 mM L-glutamine and 10% heat-inactivated fetal bovine serum in 12.5 cm^2 tissue culture flasks. Amastigotes develop intracellularly, differentiate into trypomastigotes, and leave the host cell. These trypomastigotes infect new L-6 cells and are the stages used to initiate an infection in the assay. All cultures and assays are conducted at 37° C. under an atmosphere of 5% CO2 in air.
as §1
Assays are performed in sterile 96-well microtiter plates, each well containing 100 μl medium with 2×10^3 L-6 cells. After 24 hours, […] of a trypanosome suspension containing 5×10^3 trypomastigote bloodstream forms from culture are added to the wells. Forty-eight hours later, the medium is removed from the wells and replaced by […] fresh medium, with or without a serial drug dilution. At this point the L-6 cells should be infected with amastigotes and no free trypomastigotes should be in the medium. Seven 3-fold drug dilutions are used, covering a range from 90 μg/mL to 0.123 μg/mL. Each drug is tested in duplicate. Active compounds are tested twice for confirmation. After 96 hours of incubation the plates are inspected under an inverted microscope to assure growth of the controls and sterility.
Then the substrate CPRG/Nonidet (50 μl) is added to all wells. A colour reaction will become visible within 2-6 hours and can be read photometrically at 540 nm. Data are transferred into a graphics program (e.g., EXCEL), sigmoidal inhibition curves determined and IC50 values calculated.

| Compound | P. falciparum IC50 (P. falciparum K1) [µg/mL] | L. donovani IC50 [1] [µg/mL] | T. b. rhodesiense IC50 [2] [µg/mL] | T. cruzi IC50 [3] [µg/mL] | IC50 (P. falciparum K1) [µg/mL] | IC50 [1] [µg/mL] | IC50 [2] [µg/mL] | IC50 [3] [µg/mL] |
| --- | --- | --- | --- | --- | --- | --- | --- | --- |
| CC1(C)COC(c2cccc(B(Oc3c(Cl)cc(Cl)c4cccnc34)c3cccc(F)c3)c2)=N1 [Compound 81] | 3.355 | 0.18 | 1.9 | 4.2 | – | – | – | – |
| Cc1ccc(B(Oc2cccc3cccnc23)c2ccccc2)cc1Cl [Compound 10, (3-Chloro-4-methylphenyl)phenylborinic acid quinolin-8-yl ester] | – | – | – | – | 1.5 (≈ 4.19 µM) | 0.38 (≈ 1.06 µM) | 0.52 (≈ 1.45 µM) | 4.2 (≈ 11.7 µM) |
| N#Cc1ccc(B(Oc2cccc3cccnc23)c2ccc(F)cc2F)cc1 [Compound 98] | 3.245 | 0.59 | 0.345 | 4.05 | – | – | – | – |
| CC1(C)COC(c2cccc(B(Oc3cccc4cccnc34)c3cccc(F)c3)c2)=N1 [Compound 19, [3-(4,5-Dihydro-4,4-dimethyloxazol-2yl)phenyl](3-fluorophenyl)borinic acid quinolin-8-yl ester] | – | – | – | – | 1.89 (≈ 4.45 µM) | 0.66 (≈ 1.56 µM) | 0.32 (≈ 0.754 µM) | 1.33 (≈ 3.15 µM) |
| O=C(OB(c1cccc(Cl)c1)c1cccc(Cl)c1)c1ncccc1OCCN1CCOCC1 [Compound 77] | 1.225 | 1.1 | 17.2 | 5.15 | – | – | – | – |
| C=CB(Oc1c(Cl)cc(Cl)c2ccc(C)nc12)c1cccnc1 [Compound 82] | 2.647 | 0.22 | 1.19 | 1.95 | – | – | – | – |
| N#Cc1ccc(B(Oc2cccc3cccnc23)c2ccc(F)cc2)cc1 [Compound 22, (4-Cyanophenyl)(4-fluorophenyl)borinic acid quinolin-8-yl ester] | – | – | – | – | 1.46 (≈ 4.15 µM) | 0.34 (≈ 0.965 µM) | 0.325 (≈ 0.923 µM) | 0.845 (≈ 2.4 µM) |
| Cc1ccc(B(OC(=O)c2ncccc2O)c2ccc(C)c(Cl)c2)cc1Cl [Compound 69] | 2.449 | 0.22 | 16.5 | 3.35 | – | – | – | – |
| Fc1cc(B(Oc2cccc3cccnc23)c2cccc(Cl)c2)cc(C(F)(F)F)c1 [Compound 123] | 3.51 | 0.54 | 0.31 | 4 | – | – | – | – |
| CN(C)Cc1ccc(B(Oc2cccc3cccnc23)c2ccc(C#N)cc2)cc1 [Compound 125] | 4.973 | 0.38 | 0.5 | 4.9 | – | – | – | – |
| N#Cc1ccc(B(Oc2cccc3cccnc23)c2cccc(Cl)c2)cc1 [Compound 26, (3-Chlorophenyl)(4-cyanophenyl)borinic acid quinolin-8-yl ester] | 1.44 | 0.55 | 0.21 | – | 1.4 (≈ 3.8 µM) | 0.41 (≈ 1.11 µM) | 0.29 (≈ 0.787 µM) | – |
| Fc1ccc(B(Oc2cccc3cccnc23)c2cccc(Cl)c2)cc1 [Compound 14, (3-Chlorophenyl)(4-fluorophenyl)borinic acid quinolin-8-yl ester] | 1.93 | 0.48 | 0.28 | – | 1.9 (≈ 5.25 µM) | 0.37 (≈ 1.02 µM) | 0.5 (≈ 1.38 µM) | – |
| N#Cc1cccc(B(Oc2cccc3cccnc23)c2cc(F)cc(C(F)(F)F)c2)c1 [Compound 121] | – | 0.53 | 0.43 | 4.95 | – | – | – | – |
| N#Cc1ccc(B(Oc2cccc3cccnc23)c2ccc(C#N)cc2)cc1 [Compound 88] | – | 0.76 | 0.41 | 1.385 | – | – | – | – |
| C=CB(Oc1cccc2cccnc12)c1cccnc1 [Compound 94] | – | 0.55 | 0.495 | 2.8 | – | – | – | – |
| Cc1cc(Cl)ccc1B(Oc1cccc2cccnc12)c1ccc(Cl)cc1C [Compound 109] | – | 0.75 | 0.405 | 4.35 | – | – | – | – |
| Cc1cc(C)c2cccnc2c1OB(c1ccc(F)cc1)c1ccc(Cl)cc1 [Compound 91] | – | 0.94 | 0.36 | 4.3 | – | – | – | – |
| CN(C)Cc1ccc(B(Oc2cccc3cccnc23)c2ccc(Cl)cc2)cc1.Cl [Compound 105] | – | 0.72 | 0.41 | 4.2 | – | – | – | – |
